Results from patent US20040136975A1 (priority 2004, published 2004).

Legend:
[1] = test system: transfected EC cells; conditions: cited from earlier work
[2] = test system: transformed cells; conditions: cited from earlier work
[3] = test system: non-transformed (pDCR) NIH 3T3 cells; experiment: cells; type: cell-based; conditions: Mus musculus, NIH3T3, 48 h, read-out: inhibition of growth
[4] = test system: VEGF; conditions: cited from earlier work

Row | Compound | basal motility and motility stimulated by JNK agonists [1] | morphological reversion of transformed cells [2] | inhibition at 50 µM [3] [%] | up-regulation of VEGF by heregulin [4]
1 | COc1cc(/C=C/C(=O)CC(=O)/C=C/c2ccc(O)c(OC)c2)ccc1O [curcumin] | decreased |  |  | 
2 | trans-retinoic acid | decreased |  |  | 
3 | COc1cccc(-c2cc(=O)c3ccccc3o2)c1N [PD98059] |  | causes morphological reversion | 50 | not
4 | SB203580 |  |  |  | blocks
